Reference: patent US20220409696A1, “Heparin-Associated Polypeptides and Uses Thereof” (Juvena Therapeutics, Inc., priority 2021, published 2022)

Columns and labels:
DM1 human myoblast cells = test: Proliferation (EdU) of DM1 human myoblast; assay type: cell-based; conditions: 72 h for proliferation
Description: FIG. 7A Bar graph of % EdU+ human myoblast (person) and FIG. 7B % area MyHC in response to IGF2. Myoblast were cultured 72 h for proliferation and 96 h for fusion in the presence of indicated factor. Mean∓S.D. Mean∓SD. Significant p-values (EdU: Vehicle˜IGF2: 6.8E-3, % eMyHC Area: Vehicle˜IGF2: 1.9E-4) (*p<0.05 by Students Two-Tailed T-test, n=3−6).
IGF2 was tested individually for its ability to promote proliferation and/or fusion of human muscle progenitor cells from an individual with myotonic dystrophy type 1 (hMD)—a muscular dystrophy caused by mutations in the DMPK1 gene. […] After 72 or 96 hours, cells were pulsed for 2-5 hours with EdU (30 uM), ethanol fixed, stained with Hoescht 3342, immunostained for proliferation—as measured by the percent of cells staining positive for EdU (% EdU)-, and immunostained for differentiation—as measured by the increase in cellular area staining positive for embryonic myosin heavy chain (% eMyHC) relative to the negative controls, which received media and vehicle only. Wells were imaged on a Keyence BZ-100 at 4×, the images quantified in Cell Profiler, and the statistics were computed in R. Additionally, RNA was extracted from myoblast and select transcript abundances quantified by qPCR. […]

DM1 human myoblast = test: Gene expression fold change in DM1 human myoblast; assay type: cell-based; conditions: IGF2 200 ng/mL
Description: Myoblasts were cultured 48 h in the presence of factors (BMP7 50 ng/mL, Butyrate 100 nM, IGF2 200 ng/mL).
Myoblasts were cultured 96 h in the presence of factors (IGF2 200 ng/mL). […] Myoblasts were cultured 48 h in the presence of factors (IGF2 200 ng/mL).
RNA was isolated from each well (RNeasy Mini Kit, Qiagen) and cDNA was obtained by reverse-transcription (High Capacity Reverse Transcription Kit, Thermo Fisher Scientific). Real-time quantitative PCR was performed using QuantStudio3 (Thermo Fisher).
IGF2 was tested individually for its ability to promote proliferation and/or fusion of human muscle progenitor cells from an individual with myotonic dystrophy type 1 (hMD)—a muscular dystrophy caused by mutations in the DMPK1 gene. The effect of IGF2 on myogenic activity was assayed in biological triplicate across a range of concentrations centered around expected physiological levels by adding each factor to hMD myoblasts for 72 hours with daily media changes (DMEM+2% horse serum) and a second pulse of factors at the first media change. After 72 or 96 hours, cells were pulsed for 2-5 hours with EdU (30 uM), ethanol fixed, stained with Hoescht 3342, immunostained for proliferation—as measured by the percent of cells staining positive for EdU (% EdU)-, and immunostained for differentiation—as measured by the increase in cellular area staining positive for embryonic myosin heavy chain (% eMyHC) relative to the negative controls, which received media and vehicle only. Wells were imaged on a Keyence BZ-100 at 4×, the images quantified in Cell Profiler, and the statistics were computed in R. Additionally, RNA was extracted from myoblast and select transcript abundances quantified by qPCR.

[1] = Backbone cleavage on expression from CHO cells (reducing SDS-PAGE, Western blot)
Description: The amino acid backbone of IGF2 is cleaved when expressed from Chinese Hamster Ovary (CHO) cells (FIG. 13A) as visualized on a reducing SDS-PAGE and Western blot (FIG. 13B). The CHO cells were grown in a 37° C. incubator with a humidified atmosphere of 8% CO2 on an orbital shaker platform with a shaking speed 125 rpm to reach 4E6 cells/mL, followed by transferring the calculated volume of cells to fresh, pre-warmed ExpiCHO™ Expression Medium in a shake flask. Incubated flasks in a 37° C. incubator with a humidified atmosphere of 8% CO2 shook on an orbital shaker platform until cultures reached a density of 4×106-6×10^6 viable cells/mL. After mixing each plasmid with 100 ul SFM in a microtube; ExpiFectamine (8 ul×10.5=84 ul) with OptiPro medium (92 ul×10.5=966 ul) in a microtube; adding 100 ul into the plasmid tube and mix by pipetting; After 5 min, add 200 ul into each well and swirl to mix. mix enhancer (15×10.2=153 ul) with feed (600×10.2=6.12 ml), add 615 ul into each well. Culture supernatant collected at intervals was spun down at low speed and high speed, then frozen at −80 deg. Aliquots were analyzed for protein concentration by nanodrop, and then an equivalent amount loaded onto 4-12% SDS-PAGE gels for molecular weight distribution analysis. […]

[2] = 48 h, BMP7 50 ng/mL, Butyrate 100 nM

IGF2: Human IGF2 polypeptide, amino acids 25 to 91 of SEQ ID NO. 32 (i.e. SEQ ID NO. 29)
EdU FC (DM1 human myoblast cells): 2.18 | ATP1B1 expression fold change compared to FM (vehicle) (DM1 human myoblast; 48 h): 3.018 | MYF5 myogenic gene expression fold change compared to FM (vehicle) (DM1 human myoblast; [2]): 0.730 | MYODI myogenic gene expression fold change compared to FM (vehicle) (DM1 human myoblast; [2]): 1.252 | MYOG myogenic gene expression fold change compared to FM (vehicle) (DM1 human myoblast; [2]): 2.972 | CKM expression fold change compared to vehicle (DM1 human myoblast; 96 h): 5.165 | MYH3 expression fold change compared to vehicle (DM1 human myoblast; 96 h): 14.833 | cleavage of the amino acid backbone when expressed from CHO cells [1]: cleaved
